Test results from ChEMBL document CHEMBL1255413, “Proteus mirabilis pmrI, an RppA-regulated gene necessary for polymyxin B resistance, biofilm formation, and urothelial cell invasion” (2010).
In brackets after ≈: the same amount, converted by molar mass.

Key:
[1] = test system: Proteus mirabilis; assay: Antimicrobial activity against PpmrI knockout mutant Proteus mirabilis dIp after 16 to 18 hrs by broth microdilution method; format: functional
[2] = test system: Proteus mirabilis; assay: Antimicrobial activity against wild type Proteus mirabilis N2 […] after 16 to 18 hrs by broth microdilution method; format: functional
[3] = test system: Proteus mirabilis; assay: Antimicrobial activity against PpmrI knockout mutant Proteus mirabilis dIpc complemented with PPmrI gene after 16 to 18 hrs by broth microdilution method; format: functional
[4] = test system: Proteus mirabilis; assay: Antimicrobial activity against Proteus mirabilis I2 mutant after 16 to 18 hrs by broth microdilution method; format: functional, organism-based

Molecule | MIC [1] | MIC [2] | MIC [3] | MIC [4]
CC1(C)S[C@@H]2[C@H](NC(=O)[C@H](N)c3ccccc3)C(=O)N2[C@H]1C(=O)O [AMPICILLIN] | 16 µg/mL (≈ 45.8 µM) | 16 µg/mL (≈ 45.8 µM) | 16 µg/mL (≈ 45.8 µM) | 
C[C@@H](O)[C@H]1C(=O)N2C(C(=O)O)=C(SCCNC=N)C[C@H]12 [IMIPENEM ANHYDROUS] | 0.25 µg/mL (≈ 0.835 µM) | 2 µg/mL (≈ 6.68 µM) | 2 µg/mL (≈ 6.68 µM) | 
CN(C)[C@@H]1C(O)=C(C(N)=O)C(=O)[C@@]2(O)C(O)=C3C(=O)c4c(O)cccc4[C@@](C)(O)[C@H]3C[C@@H]12 [TETRACYCLINE] | 32 µg/mL (≈ 72 µM) | 32 µg/mL (≈ 72 µM) | 32 µg/mL (≈ 72 µM) | 
GENTAMICIN | 4 µg/mL | 4 µg/mL | 4 µg/mL | 
POLYMYXIN B | 4 µg/mL |  |  | 4 µg/mL
